According to US20100197584A1, “USE OF CURCUMIN TO BLOCK BRAIN TUMOR FORMATION IN MICE” (Research Foundations of the City University of- New York, priority 2007, published 2010):

Legend:
rat glioma cells = rat glioma cells in vitro (Karmakar 2006; Dhandapani 2007); cited from earlier work
VEGF = assay: Western blot of B16F10 cells, VEGF; format: cell-based, mouse; settings: 50 μM
Protocol: (§1) B16F10 cells were cultured in 10-cm plates and then treated in duplicate with carrier or curcumin (50 μM). Following treatment for appropriate time periods, the cells were washed with PBS, lysed in RIPA buffer (PBS containing 1% Nonidet P40, 0.5% sodium deoxycholate, 0.1% SDS, 0.5 mM Na3VO4 plus freshly added PMSF and protease inhibitor cocktail; Boeringer-Roche), and then 20 μg of lysate protein (per lane) were analyzed by SDS-10% PAGE and Western blot analysis. Antibody concentrations used were: anti-phospho-NF-κB (1:1000) (Santa Cruz Biotechnology, Santa Cruz, Calif.), anti-phospho-Akt (1:5000) (Cell Signaling, CA), anti-cyclin D1 (1:1000) (Cell Signaling, CA), anti-BclXL (1:500) (Santa Cruz Biotechnology), anti-VEGF (1:500) (Santa Cruz Biotechnology), and anti-β-actin (1:1000) (Sigma, St. Louis, Mo.).

[1] = test system: A549 (human lung cancer) cells; assay: Caspase-3/7 assay in A549 cells; format: cell-based; settings: 20 μM and 50 μM, 48 h (FIG. 5)
Protocol: (§2) Cells. B16F10 (mouse melanoma), GL261 (mouse glioma), HOG (human oligodendroglioma), A549 (human lung cancer), and […] (mouse neuroblastoma) cells were cultured separately in DMEM containing 10% (v/v) fetal bovine serum and 1% (v/v) penicillin-streptomycin (PS) and allowed to grow to 40% confluence in a 96-well plate. Curcumin Treatment. Two hours before drug treatment, the medium in each well was replaced with 200 μl Neurobasal medium supplemented with 2% (v/v) B27 and 1% (v/v) PS (Drug-treatment Medium). A stock solution (40 mM) of curcumin was prepared in sterile dimethyl sulfoxide (DMSO) (Example 1). Through serial dilution of each stock solution in Drug-treatment Medium, the following concentrations were obtained: 20 μM and 50 μM (for caspase 3/7 assays) or 25 μM and 50 μM (for MTT assays). Drug-treatment Medium in each well was aspirated, and a drug solution of each concentration or carrier-containing medium (control) was added to triplicate wells of cells (50 μl/well). […] Additionally, the background absorbance was determined from parallel wells containing only the Drug-treatment Medium plus a particular concentration of the drug (no cells). […] Fluorescence in each well was measured using the FLx 800 plate reader (Bio-Tek Instruments, Winooski, Vt.) set at 485/20 nm excitation and 528/20 nm emission wavelengths and the sensitivity of 70. […]

phospho-NF-κB = assay: Western blot of B16F10 cells, phospho-NF-κB; format: cell-based, mouse; settings: 50 μM (FIG. 9)
Protocol: as §1

Erk = assay: Western blot of B16F10 cells, Erk; format: cell-based, mouse; settings: 50 μM (FIG. 9)
Protocol: as §1

[2] = test system: GL261 (mouse glioma) cells; assay: Caspase-3/7 assay in GL261 cells; format: cell-based; settings: 20 μM and 50 μM, 48 h (FIG. 4)
Protocol: as §2

melanoma cell lines = melanoma cell lines (Siwak et al. 2005); cited from earlier work
[3] = test system: HOG (human oligodendroglioma) cells; assay: Caspase-3/7 assay in HOG cells; format: cell-based; settings: 20 μM and 50 μM, 48 h or 96 h (FIG. 3)
Protocol: as §2

[4] = test system: GL261 (mouse glioma) cells; assay: Cell viability assay using MTT, GL261; format: cell-based; settings: 25 μM and 50 μM, 48 h or 96 h, versus control cells (FIG. 6b)
Protocol: Cells. B16F10 (mouse melanoma), GL261 (mouse glioma), HOG (human oligodendroglioma), A549 (human lung cancer), and N18 (mouse neuroblastoma) cells were cultured separately in DMEM containing 10% (v/v) fetal bovine serum and 1% (v/v) penicillin-streptomycin (PS) and allowed to grow to 40% confluence in a 96-well plate.
Curcumin Treatment. Two hours before drug treatment, the medium in each well was replaced with 200 μl Neurobasal medium supplemented with 2% (v/v) B27 and 1% (v/v) PS (Drug-treatment Medium). A stock solution (40 mM) of curcumin was prepared in sterile dimethyl sulfoxide (DMSO) (Example 1). Through serial dilution of each stock solution in Drug-treatment Medium, the following concentrations were obtained: 20 μM and 50 μM (for caspase 3/7 assays) or 25 μM and 50 μM (for MTT assays). […] Additionally, the background absorbance was determined from parallel wells containing only the Drug-treatment Medium plus a particular concentration of the drug (no cells).
Cell Viability Assay Using MTT (3-(4,5-Dimethylthiazolyl-2)-2,5-Diphenyltetrazolium Bromide). […] Absorbance was measured at 570 nm using a 96-well multi scanner auto-reader with the extraction buffer used as blank. For curcumin samples, the absorbance obtained from the corresponding curcumin plus medium samples was subtracted.

[5] = test system: human pancreatic carcinoma cell lines; settings: human pancreatic carcinoma cell lines (Li et al. 2004); cited from earlier work

Compound: COc1cc(/C=C/C(=O)CC(=O)/C=C/c2ccc(O)c(OC)c2)ccc1O [curcumin]
- apoptosis (rat glioma cells): triggers apoptosis
- VEGF (Western blot) (VEGF): suppressed
- caspase-3/7 activity [1]: increased
- phospho-NF-κB (Western blot) (phospho-NF-κB): suppression
- Erk (Western blot) (Erk): suppression
- caspase-3/7 activity [2]: increased
- apoptosis (melanoma cell lines): induces apoptosis
- caspase-3/7 activity [3]: increased
- cell viability (MTT) [4]: dramatic decrease
- apoptosis [5]: induces apoptosis
